# Source: patent US9468641B2, “Anti-inflammatory pharmaceutical composition comprising benzopyranyl tetracycles” (SEOUL NATIONAL UNIVERSITY R&DB FOUNDATION, priority 2014, dated 2016)
# Assays:
# [1] = system: HAPI cells, Primary neuroblastoma, and RAW 264.7 cells; experiment: Griess assay of nitrite release in further cell lines; type: cell-based; details: LPS stimulation, FIG. 2
# Method: (§1) Cells increase the secretion of nitrite when induced to be inflammatory, but decrease the secretion of nitrite in the presence of an anti-inflammatory agent. […] Cells were treated with the compounds in the absence or presence of 100 ng/mL LPS (lipopolysaccharide). After 24 hrs of incubation, the cell culture media were reacted with Griess reagent (0.1% naphthylethylenediamine dihydrochloride and 1% sulfanilamide in 2% phosphoric acid). Absorbance was measured at 550 nm using a microplate reader, and the level of nitrite was estimated by comparison with a sodium nitrite standard curve.
# [2] = system: proinflammatory cytokine TNFα; experiment: TNF-α ELISA of LPS-induced secretion; type: cell-based; details: FIG. 4
# Method: TNF-α secretion was measured using a TNF-α ELISA kit. Cells were treated with LPS in the absence or presence of ICM. After 24 hrs of incubation, the levels of TNF-α in the culture medium were measured with rat monoclonal anti-mouse TNF-α antibody as a capture antibody, and goat biotinylated polyclonal anti-mouse TNF-α antibody as a detection antibody. The biotinylated anti-TNF-α antibody was detected by sequential incubation with streptavidin-horseradish peroxidase conjugate. After incubation with a TMB substrate for 20 min, the color development was stopped by adding 2 N H2SO4. The absorbance was then read (450 nm and 540 nm) using a microplate reader.
# NF-κB signaling (p65) = experiment: Immunofluorescence staining of nuclear translocation of p65; type: cell-based; details: LPS stimulation, FIG. 5
# Method: Cells were pretreated with ICM and LPS for 1 hr and then fixed with 4% paraformaldehyde for 30 min at 20° C. and with cold methanol for 10 min at −20° C. After permeabilization with 0.3% Triton X-100 and PBS for 10 min, the fixed cells were blocked with 1% normal horse serum for 1 hr and incubated with mouse anti-p65 antibody at 4° C. for 12˜16 hrs. After washing with PBS containing 0.05% Tween-20 (PBST), Alexa Fluor-488-labeled goat anti-mouse IgG antibody was added to the sample, incubated for 1 hr at room temperature and washed with PBST. Nuclei were visualized by DAPI staining. Samples were analyzed by fluorescence microscopy.
# purified HMGB2 protein = target: T1, purified HMGB2 protein (Homo sapiens, UniProt P26583); experiment: SPR (surface plasmon resonance) assay; type: binding; details: 1, 15, 30, 50, 75, and 100 μM ICM, FIG. 13
# T1 sequence (P26583 1-209): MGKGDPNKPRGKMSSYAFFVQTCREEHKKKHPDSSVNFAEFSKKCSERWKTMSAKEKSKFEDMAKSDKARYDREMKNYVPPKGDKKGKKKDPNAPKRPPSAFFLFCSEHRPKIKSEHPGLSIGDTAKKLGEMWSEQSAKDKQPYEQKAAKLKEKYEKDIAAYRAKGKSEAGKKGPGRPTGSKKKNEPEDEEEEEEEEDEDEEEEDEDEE
# Method: To determine the dissociation constant of the interaction of ICM with HMGB, SPR analysis was performed using Biacore T100. A carboxyl group bound onto a CM5 chip of the biosensor was activated with EDC(1-ethyl-3-(3-dimethylaminopropyl)-carbodiimide) and NHS(N-hydroxysuccinimide) to form reactive succinimide ester. HMGB1 (10 mM Na-acetate, pH 4.0) and HMGB2 (10 mM Na-acetate, pH 4.5) proteins were immobilized via an amide bond onto the sensor chip, followed by quenching excess succinimide ester with 1 M ethanolamine-HCl (pH 8.0). PBS was used as a running buffer for the immobilization. After immobilization, various concentrations of ICM were injected (for 60 sec at a flow rate of 30 μl/min). […] For this, a buffer containing 10-mM HEPES (pH 7.4), 5% DMSO, 150 mM NaCl, 3 mM EDTA, and 0.005% P20 was injected. Binding was measured at 25° C. The measurements were analyzed using Biacore T100 Evaluation software (GE Healthcare). Finally, the curve was obtained by normalizing to the control. The dissociation constant was calculated by fitting the curve to the 1:1 binding model.
# HMGB2 = target: T2, HMGB2 (Mus musculus, UniProt P30681); experiment: Griess assay in BV-2 cells with siRNA-mediated HMGB2 knockdown; type: cell-based; details: normalized to DMSO treatment, FIG. 16
# T2 construct: endogenous in cells
# T2 sequence (P30681 1-210): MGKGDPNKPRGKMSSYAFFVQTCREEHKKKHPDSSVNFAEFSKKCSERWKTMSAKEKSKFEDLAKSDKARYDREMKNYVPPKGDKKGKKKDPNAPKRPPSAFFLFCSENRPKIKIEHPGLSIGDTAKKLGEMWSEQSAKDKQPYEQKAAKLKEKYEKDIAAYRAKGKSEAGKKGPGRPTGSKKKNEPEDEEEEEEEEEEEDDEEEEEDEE
# Method: as §1
# The siRNA transfection of BV-2 microglial cells was performed using Lipofectamine™ 2000 (Invitrogen). Forty-eight hours after transfection, the cells were used for further experiments.
# HMGB2 and HMGB1 = experiment: Immunoprecipitation analysis of post-translational modification; type: cell-based; details: western blotting, FIG. 18
# Method: After exposure to ICM in the presence of LPS for 18 hrs, cells were lysed in subcellular fraction buffer (250 mM sucrose, 20 mM HEPES, 10 mM KCl, 1 mM EDTA, 1 mM EGTA, 1 mM DTT, and protease inhibitor cocktail), passed through a 25-Ga needle several times, and incubated on ice for 20 min. After centrifugation at 3,000 rpm for 5 min, the pellet and the supernatant were separated. The nuclear pellet was washed and then resuspended in standard lysis buffer with 10% glycerol and 0.1% SDS. The cytosolic fraction was obtained by centrifugation of the separated supernatant at 8,000 rpm for 15 min. The conditioned medium was collected for the analysis of the extracellular level of HMGBs and concentrated with Amicon Ultra 10K filters. The samples were analyzed by electrophoresis and western blotting.
# For the analysis of post-translational modification levels on HMGB, immunoprecipitation was performed. […] The concentration of protein was measured by BCA assay, and the lysates were incubated overnight with an anti-phosphoserine antibody or an anti-acetylated lysine antibody at 4° C., followed by precipitation with a protein G immunoprecipitation kit (Sigma). Each of the samples was analyzed for HMGB2 level by western blot assays.
# EAE model = experiment: Experimental auto-immune encephalitis (EAE) model; type: in vivo, C57BL/6 mice
smiles,measurement,setting,value
CC1(C)Oc2cc(O)ccc2C2C1=CCn1c(=O)n(-c3ccccc3)c(=O)n12 (centres unmarked) [ICM],nitrite release,[1],inhibit nitrite release in a broad range of cell lines
same,LPS-induced secretion of TNFα,[2],suppressed LPS-induced secretion of the proinflammatory cytokine
same,nuclear translocation of p65,NF-κB signaling (p65),suppressed NF-κB signaling
same,binding to HMGB (SPR sensorgram),purified HMGB2 protein,binds directly to HMGB
same,anti-inflammatory effect on LPS-induced nitrite release under HMGB2 knockdown,HMGB2,anti-inflammatory effect of ICM was decreased by HMGB2 knockdown
same,LPS-induced phosphorylation and acetylation of HMGB2 and HMGB1,HMGB2 and HMGB1,the post-translational modification was suppressed by ICM
same,HMGB2 levels in cerebrospinal fluid and serum,"EAE model; ELISA, FIG. 24",effectively suppressed the release of HMGB2 into body fluids
same,microglial activation in spinal cords (anti-Iba-1 staining),EAE model; FIG. 21,clearly suppressed by ICM treatment
same,mRNA levels of proinflammatory cytokines and chemokines in microglia,"EAE model; RT-PCR, microglial cells from brain of EAE mice, FIG. 23",decreased in the ICM-treated group
same,mean clinical score (0-5 scale),"EAE model; days after MOG immunization, FIG. 20",reduced with ICM treatment
same,HMGB1 or HMGB2 levels in spinal cord sections,"EAE model; immunofluorescence, FIG. 25",effectively reduced the EAE-induced increase of HMGB1 or HMGB2 levels
same,MAP-2 levels in ventral horn and ventral column,"EAE model; immunofluorescence, FIG. 26",effectively recovered by ICM administration
same,inflammatory lesions in spinal cords (H&E staining),"EAE model; lumbar spinal cord, 15 days after EAE induction, FIG. 22",substantially attenuated by ICM treatment
same,demyelination (anti-MBP staining),"EAE model; spinal cord sections, FIG. 27",suppresses the demyelination in the EAE model
